Test results: patent US20250197407A1 (Jazz Pharmaceuticals Ireland Limited, priority 2022, published 2025)

What follows are compounds tested against SOS1/KRAS WT (Homo sapiens (Human), UniProt Q07889) (assay: SOS1/KRAS WT HTRF binding assay (FRET-based protein-protein interaction)). Conditions: inhibition of His6-SOS1 (aa564-1049, 40 nM) binding to GST-KRAS-WT (aa1-188, 40 nM); at least two independent replicates; read-out: SOS1/KRAS WT HTRF Binding assay pIC50 (converted).
Summary of the method: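 Time-resolved FRET at 665 nm, read 4 hr after adding anti-GST-Eu(K) (4 nM) and anti-6His-XL665 (20 nM), tracked SOS1(aa564-1049)–KRAS WT(aa1-188) association. Both proteins were at 40 nM, pre-incubated 60 min at room temperature with compound. Max/min signals came from 0.05% DMSO and 10 μM reference, with four-parameter logistic IC50.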

Chain of SOS1/KRAS WT (Q07889 564-1049): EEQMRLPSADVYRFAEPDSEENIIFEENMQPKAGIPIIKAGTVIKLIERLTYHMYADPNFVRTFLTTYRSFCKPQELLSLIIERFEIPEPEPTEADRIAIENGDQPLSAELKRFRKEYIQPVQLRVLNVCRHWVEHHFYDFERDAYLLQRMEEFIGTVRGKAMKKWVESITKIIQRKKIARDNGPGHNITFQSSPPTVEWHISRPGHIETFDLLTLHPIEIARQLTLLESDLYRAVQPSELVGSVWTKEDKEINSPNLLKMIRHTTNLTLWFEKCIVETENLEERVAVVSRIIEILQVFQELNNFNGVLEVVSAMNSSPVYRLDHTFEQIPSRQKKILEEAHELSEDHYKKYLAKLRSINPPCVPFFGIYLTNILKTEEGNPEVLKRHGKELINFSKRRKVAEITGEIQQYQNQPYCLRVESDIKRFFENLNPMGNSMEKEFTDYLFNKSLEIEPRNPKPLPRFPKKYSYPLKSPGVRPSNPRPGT

Row | Structure (SMILES) | IC50 [nM]
1 | Cc1nnc(N[C@H](C)c2cccc(C(F)(F)C(C)(C)O)c2F)c2cc3c(cc12)n(C)c(=O)n3C [Compound 16, 1,3,8-trimethyl-5-[[(1R)-1-[3-(1,1-difluoro-2-hydroxy-2-methyl-propyl)-2-fluoro-phenyl]ethyl]amino]imidazo[4,5-g]phthalazin-2-one] | 11.2
2 | Cc1nnc(N[C@H](C)c2cc(N)cc(C(F)(F)F)c2)c2cc3c(cc12)n(C)c(=O)n3C [Compound 4, 5-[[(1R)-1-[3-amino-5-(trifluoromethyl)phenyl]ethyl]amino]-1,3,8-trimethyl-imidazo[4,5-g]phthalazin-2-one] | 17
3 | CCC1(OC)C(=O)N(C)c2cc3c(C)nnc(N[C@H](C)c4cccc(C(F)(F)CO)c4C)c3cc21 (stereo partly drawn) [Compound 198, 5-[[(1R)-1-[3-(1,1-difluoro-2-hydroxy-ethyl)-2-methyl-phenyl]ethyl]amino]-3-ethyl-3-methoxy-1,8-dimethyl-pyrrolo[2,3-g]phthalazin-2-one] | 19.5
4 | CCC1(OC)C(=O)N(C)c2cc3c(N[C@H](C)c4cccc(C(F)(F)CO)c4)nnc(C)c3cc21 (stereo partly drawn) [Compound 206, 3-ethyl-3-methoxy-1,5-dimethyl-8-[[(1R)-1-[3-(1,1-difluoro-2-hydroxy-ethyl)phenyl]ethyl]amino]pyrrolo [2,3-g]phthalazin-2-one] | 14.5
5 | Cc1nnc(N[C@H](C)c2cccc(C(F)(F)CO)c2)c2cc3c(cc12)n(C)c(=O)n3C(C)(C)C [Compound 80, 3-tert-butyl-1,8-dimethyl-5-[[(1R)-1-[3-(1,1-difluoro-2-hydroxy-ethyl)phenyl]ethyl]amino]imidazo [4,5-g]phthalazin-2-one] | 6.17
6 | COC1(C)C(=O)N(C)c2cc3c(C)nnc(N[C@H](C)c4cccc(C(F)(F)C(C)(C)O)c4C)c3cc21 (stereo partly drawn) [Compound 174, 3-methoxy-1,3,8-trimethyl-5-[[(1R)-1-[3-(1,1-difluoro-2-hydroxy-2-methyl-propyl)-2-methyl-phenyl]ethyl]amino]pyrrolo[3,2-g]phthalazin-2-one] | 15.8
7 | Cc1c([C@@H](C)Nc2nnc(C)c3cc4c(cc23)n(C(C)(C)C)c(=O)n4C)cccc1C(F)(F)CO [Compound 100, 3-tert-butyl-1,8-dimethyl-5-[[(1R)-1-[3-(1,1-difluoro-2-hydroxy-ethyl)-2-methyl-phenyl]ethyl]amino]imidazo[4,5-g]phthalazin-2-one] | 10
8 | Cc1c(-c2ccnn2C)cccc1[C@@H](C)Nc1nnc(C)c2cc3c(cc12)n(C)c(=O)n3C [Compound 150, 1,3,8-trimethyl-5-[[(1R)-1-[2-methyl-3-(2-methylpyrazol-3-yl)phenyl]ethyl]amino]imidazo[4,5-g]phthalazin-2-one] | 8.91
9 | Cc1nnc(N[C@H](C)c2cccc(C(F)(F)F)c2)c2cc3c(cc12)n(C1CC1)c(=O)n3C [Compound 56, 1-cyclopropyl-3,8-dimethyl-5-[[(1R)-1-[3-(trifluoromethyl)phenyl]ethyl]amino] imidazo[4,5-g]phthalazin-2-one] | 11.5
10 | Cc1c(C2=CCNC2)cccc1[C@@H](C)Nc1nnc(C)c2cc3c(cc12)n(C)c(=O)n3C [Compound 158, 1,3,8-trimethyl-5-[[(1R)-1-[3-(2,5-dihydro-1H-pyrrol-3-yl)-2-methyl-phenyl]ethyl]amino]imidazo[4,5-g]phthalazin-2-one] | 120
11 | Cc1nnc(N[C@H](C)c2cccc(C(F)F)c2F)c2cc3c(cc12)n(C)c(=O)n3C1COC1 [Compound 147, 5-[[(1R)-1-[3-(difluoromethyl)-2-fluoro-phenyl]ethyl]amino]-1,8-dimethyl-3-(oxetan-3-yl)imidazo[4,5-g]phthalazin-2-one] | 12.3
12 | Cc1c([C@@H](C)Nc2nnc(C)c3cc4c(cc23)C(C)(C)C(=O)N4C)cccc1C(F)(F)CO [Compound 97, 1,3,3,8-tetramethyl-5-[[(1R)-1-[3-(1,1-difluoro-2-hydroxy-ethyl)-2-methyl-phenyl]ethyl]amino]pyrrolo[3,2-g]phthalazin-2-one] | 13.2
13 | Cc1nnc(N[C@H](C)c2cccc(C(F)F)c2F)c2cc3c(cc12)n(C)c(=O)n3C(C)(C)C [Compound 27, 3-tert-butyl-1,8-dimethyl-5-[[(1R)-1-[3-(difluoromethyl)-2-fluoro-phenyl]ethyl]amino]imidazo[4,5-g]phthalazin-2-one] | 9.33
14 | Cc1cc([C@@H](C)Nc2nnc(C)c3cc4c(cc23)n(C)c(=O)n4C)c(C)c(C(F)(F)CO)c1 [Compound 212, 5-[[(1R)-1-[3-(1,1-difluoro-2-hydroxy-ethyl)-2,5-dimethyl-phenyl]ethyl]amino]-1,3,8-trimethyl-imidazo[4,5-g]phthalazin-2-one] | 12.6
15 | CNCC(F)(F)c1cccc([C@@H](C)Nc2nnc(C)c3cc4c(cc23)n(C)c(=O)n4C)c1F [Compound 63, 1,3,8-trimethyl-5-[[(1R)-1-[3-[1,1-difluoro-2-(methylamino)ethyl]-2-fluoro-phenyl]ethyl]amino]imidazo[4,5-g]phthalazin-2-one] | 15.8
16 | Cc1c(-c2cncs2)cccc1[C@@H](C)Nc1nnc(C)c2cc3c(cc12)n(C)c(=O)n3C [Compound 159, 1,3,8-trimethyl-5-[[(1R)-1-(2-methyl-3-thiazol-5-yl-phenyl)ethyl]amino]imidazo[4,5-g]phthalazin-2-one] | 17.8
17 | CCOC1(C)C(=O)N(C)c2cc3c(C)nnc(N[C@H](C)c4cccc(C(F)(F)CO)c4)c3cc21 (stereo partly drawn) [Compound 195, 3-ethoxy-1,3,8-trimethyl-5-[[(1R)-1-[3-(1,1-difluoro-2-hydroxy-ethyl)phenyl]ethyl]amino]pyrrolo [3,2-g]phthalazin-2-one] | 20.9
18 | Cc1nnc(N[C@H](C)c2cccc(C(F)(F)CO)c2)c2cc3c(cc12)C(C)(C)C(=O)N3C [Compound 78, 1,3,3,5-tetramethyl-8-[[(1R)-1-[3-(1,1-difluoro-2-hydroxy-ethyl)phenyl]ethyl]amino]pyrrolo [2,3-g]phthalazin-2-one] | 9.55
19 | COC1(C)C(=O)N(C2CC2)c2cc3c(N[C@H](C)c4cccc(C(F)(F)C(C)(C)O)c4F)nnc(C)c3cc21 (stereo partly drawn) [Compound 139, 1-cyclopropyl-3-methoxy-3,5-dimethyl-8-[[(1R)-1-[3-(1,1-difluoro-2-hydroxy-2-methyl-propyl)-2-fluoro-phenyl]ethyl]amino]pyrrolo[2,3-g]phthalazin-2-one] | 11
20 | Cc1nnc(N[C@H](C)c2cccc(C(F)(F)F)c2)c2cc3c(cc12)n(C)c(=O)n3CC(F)(F)F [Compound 11, 1,8-dimethyl-5-[[(1R)-1-[3-(trifluoromethyl)phenyl]ethyl]amino]-3-(2,2,2-trifluoroethyl)imidazo[4,5-g]phthalazin-2-one] | 12
21 | Cc1nnc(N[C@H](C)c2cccc(C(F)F)c2F)c2cc3c(cc12)n(C)c(=O)n3C1CC1 [Compound 34, 3-cyclopropyl-1,8-dimethyl-5-[[(1R)-1-[3-(difluoromethyl)-2-fluoro-phenyl]ethyl]amino]imidazo[4,5-g]phthalazin-2-one] | 9.77
22 | Cc1nnc(N[C@H](C)c2cccc(C(F)(F)CO)c2)c2cc3c(cc12)n(C)c(=O)n3C [Compound 6, 5-[[(1R)-1-[3-(1,1-difluoro-2-hydroxy-ethyl)phenyl]ethyl]amino]-1,3,8-trimethyl-imidazo[4,5-g]phthalazin-2-one] | 18.6
23 | Cc1c(C(F)F)cccc1[C@@H](C)Nc1nnc(C)c2cc3c(cc12)n(C)c(=O)n3C [Compound 211, 5-[[(1R)-1-[3-(difluoromethyl)-2-methyl-phenyl]ethyl]amino]-1,3,8-trimethyl-imidazo[4,5-g]phthalazin-2-one] | 9.77
24 | Cc1c(C2CCOCC2)cccc1[C@@H](C)Nc1nnc(C)c2cc3c(cc12)n(C)c(=O)n3C [Compound 160, 1,3,8-trimethyl-5-[[(1R)-1-(2-methyl-3-tetrahydropyran-4-yl-phenyl)ethyl]amino]imidazo[4,5-g]phthalazin-2-one] | 269
25 | Cc1nnc(N[C@H](C)c2cccc(C(F)(F)F)c2)c2cc3c(cc12)OCC(=O)N3C [Compound 23, 4,9-dimethyl-6-[[(1R)-1-[3-(trifluoromethyl)phenyl]ethyl]amino]pyridazino[4,5-g][1,4]benzoxazin-3-one] | 44.7
26 | COCC1(C)C(=O)N(C2CC2)c2cc3c(N[C@H](C)c4cccc(C(F)(F)CO)c4F)nnc(C)c3cc21 (stereo partly drawn) [Compound 138, 1-cyclopropyl-8-[[(1R)-1-[3-(1,1-difluoro-2-hydroxy-ethyl)-2-fluoro-phenyl]ethyl]amino]-3-(methoxymethyl)-3,5-dimethyl-pyrrolo[3,2-g]phthalazin-2-one] | 6.61
27 | Cc1nnc(N[C@H](C)c2cccc(C(F)(F)C(C)(C)O)c2)c2cc3c(cc12)n(C)c(=O)n3C1CC1 [Compound 67, 3-cyclopropyl-1,8-dimethyl-5-[[(1R)-1-[3-(1,1-difluoro-2-hydroxy-2-methyl-propyl)phenyl]ethyl]amino]imidazo [4,5-g]phthalazin-2-one] | 7.41
28 | Cc1nnc(N[C@H](C)c2cccc(C(F)(F)F)c2)c2cc3c(cc12)n(C)c(=O)n3C1CCC1 [Compound 22, 3-cyclobutyl-1,8-dimethyl-5-[[(1R)-1-[3-(trifluoromethyl)phenyl]ethyl]amino] imidazo[4,5-g]phthalazin-2-one] | 11.5
29 | COCCn1c(=O)n(C)c2cc3c(N[C@H](C)c4cccc(C(F)(F)F)c4)nnc(C)c3cc21 [Compound 17, 1-(2-methoxyethyl)-3,8-dimethyl-5-[[(1R)-1-[3-(trifluoromethyl)phenyl]ethyl]amino] imidazo[4,5-g]phthalazin-2-one] | 22.9
